Where “and” joins values, the source holds several entries; their conditions need not be identical. Equal entries are not always repeated.
Tests used:
[1] = In vivo testing of electrostatically spun tube containing two sets of microparticles, plasma concentrations; set-up: species or system Sprague-Dawley rats; conditions: rat, subcutaneous electrospun tube implant, TMC278 139 mg/kg, compound 1 64 mg/kg, individual animals 1-4
Method: Tubes were electrostatically spun from a 100 mg/ml polydioxanone (IVHFIP=1.99 dl/g) hexafluoroisopropanol solution. A 4 mm mandrel was used to provide a consistent inner diameter of 4 mm. The rotational speed of the mandrel was 400 rpm, the charging voltage range was 20/−10 kV, and the pump flow rate was 10 ml/hour. The resulting wall thickness was 500 microns. Fiber diameters were 1-2 microns and the average pore size formed from the network of fibers was 20 microns as determined by Scanning Electron Microscopy.
The microparticles were prepared by the spinning disc method using a polymer/acetone solution with a concentration ranging from 3-4% (w/w). Two sets of microparticles were prepared. The target composition of one set was 70% (w/w) TMC278 and 30% (w/w) PLGA 50/50 (Lakeshore Biomaterials IVHFIP=0.79 dl/g). The target composition of the other set of microparticles was 70% (w/w) of compound 1 (=compound 14 of WO01/25240) and 30% (w/w) PLGA 50/50 (Lakeshore Biomaterials IVHFIP=0.18 dl/g). This compound 1 has the following structure and will be referred to hereinafter as compound 1:
Approximately 133 mg of the microparticle mixture was introduced into the electrostatically prepared tubes using a spatula.
The prepared tubes were implanted into the subcutaneous space on the back of four male Sprague-Dawley rats weighing between 250-350 grams. The dose of TMC278 was 139 mg/kg and the dose of compound 1 was 64 mg/kg. The tail vein was sampled at pre-determined time points. Blood samples were immediately centrifuged to extract the plasma, plasma was analyzed for compound 1 and TMC278 by LC/MS/MS. The lower limit of quantitation was 0.4 ng/ml and 2 ng/ml for TMC278 and compound 1, respectively.

[2] = In vivo testing of laser drilled melt extruded tube containing two sets of microparticles, plasma concentrations; conditions: rat, subcutaneous laser drilled extruded tube implant, TMC278 139 mg/kg, compound 1 64 mg/kg, individual animals 1-4
Method: Tubes with inner diameter of 4.5 mm were extruded from polydioxanone (IVHFIP=1.99 dl/g) using a ¾ inch single screw extruder fitted with a tube die. The dimensions of the tube were monitored using an in-line laser diameter measuring system and maintained using a puller. Following the extrusion the tubes were laser drilled. In preparation for the laser drilling a mask design was prepared that located the holes 260 microns apart from one another. Scanning electron microscopy was used to size the inner and outer diameter of the holes. […] The microparticles were prepared as described in Example 9. Approximately 133 mg of the microparticle mixture was introduced into the tubes.
The prepared tubes were implanted into the subcutaneous space on the back of four male Sprague-Dawley rats weighing between 250-350 grams. The dose of TMC278 was 139 mg/kg and the dose of compound 1 was 64 mg/kg. The tail vein was sampled at pre-determined time points. Blood samples were immediately centrifuged to extract the plasma, and plasma was analyzed for compound 1 and TMC278 by LC/MS/MS. The lower limit of quantitation for TMC278 and compound 1 was 0.4 ng/ml and 2.0 ng/ml, respectively.

[3] = In vivo testing of laser drilled melt extruded tube containing two sets of microparticles formulated with F108, plasma concentrations; set-up: species or system Sprague-Dawley rats; conditions: rat, subcutaneous laser drilled extruded tube implant, TMC278 109 mg/kg, compound 1 78 mg/kg, individual animals 1-4
Method: The laser drilled melt extruded tube was prepared as described above in example 10. The microparticles were prepared by the spinning disc method using a 3% (w/w) polymer/acetone solution. Two sets of microparticles were prepared. The target composition of one set was 70% (w/w) TMC278, 20% (w/w) PLGA 50/50 (Lakeshore Biomaterials IVHFIP=0.79 dl/g), and 10% (w/w) F108 (BASF). The target composition of the other set of microparticles was 70% (w/w) compound 1, 20% (w/w) PLGA 50/50 (Lakeshore Biomaterials IVHFIP=0.18 dl/g), and 10% (w/w) F108. The F108 was added to the polymer solution.
The size range of the microparticles was determined by randomly selecting a sample of microparticles and placing them on the stage of an optical microscope and using a ruler to measure the various sizes of the microparticles in the randomly selected sample. The size range of the TMC278 and compound 1 microparticles was 10-100 microns and 20-100 microns, respectively. Microparticles were mixed as described in example 9. Approximately 133 mg of the microparticle mixture was introduced into tubes using a spatula to transfer the contents.
The prepared tubes were implanted into the subcutaneous space on the back of four male Sprague-Dawley rats weighing between 250-350 grams. The dose of TMC278 and compound 1 was 109 mg/kg and 78 mg/kg, respectively. The tail vein was sampled at pre-determined time points. Blood samples were immediately centrifuged to extract the plasma, plasma was analyzed for compound 1 and TMC278 by LC/MS/MS. The lower limit of quantitation for TMC278 and compound 1 was 0.4 ng/ml and 2 ng/ml, respectively.

With CC(C)CN(C[C@@H](O)[C@H](Cc1ccccc1)NC(=O)O[C@H]1CO[C@H]2OCC[C@H]21)S(=O)(=O)c1ccc2c(c1)OCO2 [compound 1] the plasma concentration ([1]; 3 hour) was 2.37 ng/mL and 4.08 ng/mL and 4.46 ng/mL, the plasma concentration ([1]; 1 day) was 12.6 ng/mL and 9.95 ng/mL and 10.5 ng/mL and the plasma concentration ([1]; 3 day) was 15.1 ng/mL and 14.2 ng/mL and 15.9 ng/mL. For the same compound, the plasma concentration ([1]; 7 day) was 13.6 ng/mL and 13.2 ng/mL and 13.0 ng/mL, the plasma concentration ([1]; 14 day) was 7.17 ng/mL and 12.7 ng/mL and 16.6 ng/mL and 9.89 ng/mL and the plasma concentration ([1]; 28 day) was 6.07 ng/mL and 8.86 ng/mL and 12.4 ng/mL and 10.5 ng/mL. The plasma concentration ([1]; 35 day) was 5.75 ng/mL and 12.0 ng/mL and 20.0 ng/mL and 11.6 ng/mL, the concentration at 3 h ([1]; male, Sprague-Dawley, plasma, subcutaneous, 3 hour) was 3.93 ng/mL and the concentration at 1 day ([1]; male, Sprague-Dawley, plasma, subcutaneous, 1 day) was 6.39 ng/mL. The concentration at 3 day ([1]; male, Sprague-Dawley, plasma, subcutaneous, 3 day) was 10 ng/mL, the concentration at 7 day ([1]; male, Sprague-Dawley, plasma, subcutaneous, 7 day) was 9.95 ng/mL and the plasma concentration ([2]; 3 hour) was 2.88 ng/mL and 16.4 ng/mL and 27.0 ng/mL and 16.5 ng/mL. For the same compound, the plasma concentration ([2]; 1 day) was <2 ng/mL and 4.20 ng/mL and 9.25 ng/mL and 3.71 ng/mL, the plasma concentration ([2]; 3 day) was <2 ng/ml (2×) and 3.35 ng/ml and 6.06 ng/ml and the plasma concentration ([2]; 7 day) was 3.44 ng/mL and 3.13 ng/mL and <2 ng/mL. For the same compound, the plasma concentration ([2]; 14 day) was 2.70 ng/mL and 2.26 ng/mL and 3.66 ng/mL, the plasma concentration ([2]; 28 day) was <2 ng/mL and 4.32 ng/mL and 13.0 ng/mL and 4.30 ng/mL and the plasma concentration ([2]; 35 day) was <2 ng/mL and 3.56 ng/mL and 13.0 ng/mL and 2.57 ng/mL. For the same compound, the concentration at 7 day ([2]; male, in vivo, 7 day) was < 2 ng/mL, the concentration at 14 day ([2]; male, in vivo, 14 day) was < 2 ng/mL and the plasma concentration ([3]; 3 hour) was 59.1 ng/mL and 26.9 ng/mL and 39.2 ng/mL and 17.3 ng/mL. The plasma concentration ([3]; 1 day) was 6.13 ng/mL and 2.54 ng/mL and 4.36 ng/mL and 2.98 ng/mL, the plasma concentration ([3]; 3 day) was <2 ng/mL and the plasma concentration ([3]; 7 day) was 2.89 ng/ml and <2 ng/ml (2×). The plasma concentration ([3]; 14 day) was 8.25 ng/ml and <2 ng/ml (2×) and 6.27 ng/ml, the plasma concentration ([3]; 28 day) was 22.1 ng/mL and 6.03 ng/mL and 12.3 ng/mL and 16.3 ng/mL and the plasma concentration ([3]; 35 day) was 13.1 ng/mL and 7.25 ng/mL and 10.7 ng/mL and 15.4 ng/mL. The concentration at 3 day ([3]; male, Sprague-Dawley, plasma, 3 day) was 3.36 ng/mL and the concentration at 7 day ([3]; male, Sprague-Dawley, plasma, 7 day) was < 2 ng/mL.

From patent US11395867B2, “Degradable removable implant for the sustained release of an active compound” (Janssen Sciences Ireland Unlimited Company, priority 2009, dated 2022)
